Data: PubChem BioAssay AID248 (DTP/NCI, 2004)
Inconclusive results and toxic doses are left out. Rule as the data show it: active = T/C of 150% or more; inactive = T/C below 125%.

Tested on: L1210 leukemia ip in BDF1 mice, survival T/C
Test: NCI In Vivo Anticancer Drug Screen. Data for tumor model L1210 Leukemia (intraperitoneal) in B6D2F1 (BDF1) mice
Conditions: endpoint: mean survival time, higher = longer survival
Procedure, shortened: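 Value reflects the ratio of survival in compound-treated mice to survival in vehicle-treated controls, with both groups carrying the same transplanted tumor.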

[1] = dose: 100.0 mg/kg/injection, schedule: Q01DX009 (ip), vehicle: saline
[2] = dose: 100.0 mg/kg/injection, schedule: Q04DX003 (ip), vehicle: saline
[3] = dose: 200.0 mg/kg/injection, schedule: Q01DX009 (ip), vehicle: saline
[4] = dose: 200.0 mg/kg/injection, schedule: Q04DX003 (ip), vehicle: saline
[5] = dose: 400.0 mg/kg/injection, schedule: Q01DX009 (ip), vehicle: saline
[6] = dose: 400.0 mg/kg/injection, schedule: Q04DX003 (ip), vehicle: saline
[7] = dose: 100.0 mg/kg/injection, schedule: Q01DX001 (ip), vehicle: saline
[8] = dose: 200.0 mg/kg/injection, schedule: Q01DX001 (ip), vehicle: saline
[9] = dose: 100.0 mg/kg/injection, schedule: Q04DX002 (ip), vehicle: Klucel (hydroxypropylcellulose) (HPC)
[10] = dose: 200.0 mg/kg/injection, schedule: Q04DX002 (ip), vehicle: Klucel (hydroxypropylcellulose) (HPC)
[11] = dose: 400.0 mg/kg/injection, schedule: Q04DX002 (ip), vehicle: Klucel (hydroxypropylcellulose) (HPC)
[12] = dose: 50.0 mg/kg/injection, schedule: Q01DX009 (ip), vehicle: saline
[13] = dose: 100.0 mg/kg/injection, schedule: Q01DX001 (ip), vehicle: carboxymethylcellulose (CMC)
[14] = dose: 200.0 mg/kg/injection, schedule: Q01DX001 (ip), vehicle: carboxymethylcellulose (CMC)
[15] = dose: 400.0 mg/kg/injection, schedule: Q01DX001 (ip), vehicle: carboxymethylcellulose (CMC)
[16] = dose: 100.0 mg/kg/injection, schedule: Q01DX009 (ip), vehicle: Klucel (hydroxypropylcellulose) (HPC)
[17] = dose: 200.0 mg/kg/injection, schedule: Q01DX009 (ip), vehicle: Klucel (hydroxypropylcellulose) (HPC)
[18] = dose: 400.0 mg/kg/injection, schedule: Q01DX009 (ip), vehicle: Klucel (hydroxypropylcellulose) (HPC)
[19] = dose: 100.0 mg/kg/injection, schedule: Q04DX003 (ip), vehicle: saline with Tween-80
[20] = dose: 200.0 mg/kg/injection, schedule: Q04DX003 (ip), vehicle: saline with Tween-80
[21] = dose: 400.0 mg/kg/injection, schedule: Q04DX003 (ip), vehicle: saline with Tween-80
[22] = dose: 400.0 mg/kg/injection, schedule: Q01DX001 (ip), vehicle: saline
[23] = dose: 100.0 mg/kg/injection, schedule: Q04DX003 (ip), vehicle: Klucel (hydroxypropylcellulose) (HPC)
[24] = dose: 200.0 mg/kg/injection, schedule: Q04DX003 (ip), vehicle: Klucel (hydroxypropylcellulose) (HPC)
[25] = dose: 400.0 mg/kg/injection, schedule: Q04DX003 (ip), vehicle: Klucel (hydroxypropylcellulose) (HPC)

Measured: T/C

CC(O)CNC(=S)c1ccccc1 (stereo not drawn)
inactive: dose: 100.0 mg/kg/injection, schedule: Q04DX002 (ip), vehicle: saline with Tween-80 101 % of control | dose: 200.0 mg/kg/injection, schedule: Q04DX002 (ip), vehicle: saline with Tween-80 101 % of control

Nc1c(S(=O)(=O)O)cc(Br)c2c1C(=O)c1ccccc1C2=O
inactive: [1] 92 % of control | [2] 96 % of control | [3] 95 % of control | [4] 93 % of control | [5] 101 % of control | [6] 95 % of control

CCCC1(c2ccccc2)NC(=O)NC1=O (stereo not drawn)
inactive: [7] 96 % of control | [8] 102 % of control

O=[N+]([O-])c1ccc(-n2ccnc2)c([N+](=O)[O-])c1
inactive: [9] 100 % of control | [10] 100 % of control | [11] 93 % of control

CC(=O)OCc1ccc(-n2c(C(F)(F)F)nc3nc(Cl)c(Cl)nc32)o1
inactive: [12] 97 % of control | [1] 102 % of control | [2] 105 % of control | [3] 96 % of control | [4] 100 % of control | [5] 97 % of control | [6] 88 % of control

COc1ccc(-c2ccc(C(C)=O)cc2)cc1
inactive: [9] 90 % of control | [10] 100 % of control | [11] 100 % of control

CCCCCCCCCCNC(=O)C[n+]1cccc(C(=O)Nc2ccc(Cl)cc2)c1
inactive: dose: 6.25 mg/kg/injection, schedule: Q01DX009 (ip), vehicle: acetone 97 % of control | dose: 12.5 mg/kg/injection, schedule: Q01DX009 (ip), vehicle: acetone 92 % of control | dose: 12.5 mg/kg/injection, schedule: Q04DX003 (ip), vehicle: saline 108 % of control | dose: 25.0 mg/kg/injection, schedule: Q04DX003 (ip), vehicle: saline 96 % of control

O=C(NO)Nc1cccc(Cl)c1
inactive: [13] 103 % of control | [14] 97 % of control | [15] 100 % of control

O=C1c2ccccc2C(=O)c2cc(Cl)ccc21
inactive: [9] 95 % of control | [10] 98 % of control | [11] 98 % of control

C(=C/[PH+](c1ccccc1)c1ccccc1)/[PH+](c1ccccc1)c1ccccc1.C(=C/[PH+](c1ccccc1)c1ccccc1)/[PH+](c1ccccc1)c1ccccc1.[O-][Cl+3]([O-])([O-])O.[Rh]
inactive: dose: 100.0 mg/kg/injection, schedule: Q01DX001 (ip), vehicle: saline with Tween-80 92 % of control | dose: 400.0 mg/kg/injection, schedule: Q01DX001 (ip), vehicle: saline with Tween-80 89 % of control

O=C1CCC2(C/C1=N\Nc1ccccc1)OCCO2
inactive: [2] 100 % of control | [4] 96 % of control | [6] 100 % of control

CC1=CC(=O)CC(C)(C)C1
inactive: dose: 100.0 mg/kg/injection, schedule: Q01DX009 (ip), vehicle: saline with Tween-80 101 % of control | dose: 200.0 mg/kg/injection, schedule: Q01DX009 (ip), vehicle: saline with Tween-80 101 % of control | dose: 400.0 mg/kg/injection, schedule: Q01DX009 (ip), vehicle: saline with Tween-80 90 % of control

CC(=O)Nc1ccc(OC(=O)Nc2cccc(Cl)c2Cl)cc1
inactive: [16] 102 % of control | [17] 101 % of control | [18] 97 % of control

COc1ccc(OC)c2c1C=CCC2
inactive: [13] 96 % of control | [14] 91 % of control | [15] 104 % of control

O=C(O)C1C2OC(C(Br)C2Br)C1C(=O)O (stereo not drawn)
inactive: [9] 106 % of control | [19] 93 % of control | [10] 98 % of control | [20] 95 % of control | [11] 95 % of control

O=[N+]1c2ccccc2N([O-])C2CCCCC21 (stereo not drawn)
inactive: [9] 93 % of control | [10] 93 % of control | [11] 104 % of control

CCOc1ccc(-n2c(O)c(N=Nc3ccc(Cl)cc3)c(=O)n(-c3ccccc3)c2=S)cc1
inactive: dose: 100.0 mg/kg/injection, schedule: Q01DX001 (ip), vehicle: Klucel (hydroxypropylcellulose) (HPC) 104 % of control | dose: 200.0 mg/kg/injection, schedule: Q01DX001 (ip), vehicle: Klucel (hydroxypropylcellulose) (HPC) 105 % of control | dose: 400.0 mg/kg/injection, schedule: Q01DX001 (ip), vehicle: Klucel (hydroxypropylcellulose) (HPC) 94 % of control

Nc1ncnc2c1ncn2C1CC(O)C(CO)O1 (stereo not drawn)
inactive: [19] 101 % of control | [2] 98 % of control | [20] 98 % of control | [4] 104 % of control | [21] 98 % of control | [6] 93 % of control | dose: 440.0 mg/kg/injection, schedule: Q03HX024 (ip), vehicle: saline with Tween-80 105 % of control | dose: 660.0 mg/kg/injection, schedule: Q03HX024 (ip), vehicle: saline with Tween-80 110 % of control | dose: 1000.0 mg/kg/injection, schedule: Q03HX024 (ip), vehicle: saline with Tween-80 104 % of control

Oc1ccccc1/C=N/Nc1c2ccccc2nc2ccccc12
inactive: [7] 103 % of control | [22] 93 % of control

C=C(C)C(=O)O[C@@H]1C[C@@]2(C)O[C@@H]2C[C@H](O)/C(C)=C/[C@H]2OC(=O)C(=C)[C@@H]21
inactive: dose: 25.0 mg/kg/injection, schedule: Q01DX001 (ip), vehicle: saline 91 % of control | dose: 50.0 mg/kg/injection, schedule: Q01DX001 (ip), vehicle: saline 96 % of control | [7] 112 % of control

O=[N+]([O-])c1ccc(N2CCCC2)c([N+](=O)[O-])c1
inactive: [16] 101 % of control | [23] 95 % of control | [17] 93 % of control | [24] 92 % of control | [18] 97 % of control | [25] 99 % of control

CC(Br)c1ccc2c(c1)Cc1ccccc1-2 (stereo not drawn)
inactive: [13] 97 % of control | [14] 89 % of control | [15] 97 % of control

CCOC(=O)C1CCCCC1=O (stereo not drawn)
inactive: [16] 88 % of control | [23] 93 % of control | [17] 97 % of control | [24] 98 % of control | [18] 111 % of control | [25] 96 % of control

OCCc1c[nH]c2ccccc12
inactive: [23] 97 % of control | [24] 94 % of control | [25] 97 % of control

c1ccc2c(c1)ccc1c3c(oc12)CCCC3
inactive: [7] 116 % of control | [8] 103 % of control | [22] 105 % of control

O=C(O)c1ccccc1Cl.[Ni]
inactive: dose: 25.0 mg/kg/injection, schedule: Q04DX002 (ip), vehicle: Klucel (hydroxypropylcellulose) (HPC) 94 % of control | dose: 50.0 mg/kg/injection, schedule: Q04DX002 (ip), vehicle: Klucel (hydroxypropylcellulose) (HPC) 109 % of control

Nc1c(Cl)cc(S(N)(=O)=O)cc1Cl
inactive: dose: 100.0 mg/kg/injection, schedule: Q01DX009 (ip), vehicle: other 98 % of control | dose: 100.0 mg/kg/injection, schedule: Q04DX003 (ip), vehicle: other 100 % of control | dose: 200.0 mg/kg/injection, schedule: Q01DX009 (ip), vehicle: other 91 % of control | dose: 200.0 mg/kg/injection, schedule: Q04DX003 (ip), vehicle: other 98 % of control | dose: 400.0 mg/kg/injection, schedule: Q04DX003 (ip), vehicle: other 98 % of control

O=C(O)C(=S)Cc1cc(=O)[nH]c(=S)[nH]1
inactive: [19] 102 % of control | [20] 97 % of control | [21] 92 % of control

CCCCOC(=O)c1ccc(NC(=O)Nc2cc([N+](=O)[O-])ccc2Cl)cc1
inactive: dose: 25.0 mg/kg/injection, schedule: Q01DX009 (ip), vehicle: Klucel (hydroxypropylcellulose) (HPC) 113 % of control | dose: 50.0 mg/kg/injection, schedule: Q01DX009 (ip), vehicle: Klucel (hydroxypropylcellulose) (HPC) 100 % of control | [16] 90 % of control

C=C1C(=O)OC2CC(C)C3CC(=O)C(C)=C3C(O)C12 (stereo not drawn)
inactive: dose: 25.0 mg/kg/injection, schedule: Q01DX009 (ip), vehicle: saline 94 % of control | [12] 98 % of control
